Measured values reported in US8853234B2, “Quinolone analogs and methods related thereto” (Senhwa Biosciences, Inc., priority 2007, dated 2014).

What was measured:
[1] = test system: rDNA; assay: Quantitative PCR (QPCR) assay, rRNA inhibition (rDNA); assay type: cell-based; parameters: Selectivity: reference not given here; conditions: for Selectivity: not defined in the patent; for IC50: rRNA inhibition from quantitative PCR assay
Description: In a specific assay embodiment, provided herein is a method for identifying a molecule that modulates ribosomal RNA (rRNA) synthesis, which comprises: contacting cells with a test molecule of Formula (I), (II), (III), (IV), (V), (VI), (VI′), (VII), or (VIII), contacting a ribosomal nucleotide sequence with one or more primers that amplify a portion thereof and a labeled probe that hybridizes to the amplification product, and detecting the amount of the amplification product by hybridization of the labeled probe, whereby a test molecule that reduces or increases the amount of amplification product is identified as a molecule that modulates rRNA synthesis. The labeled probe in some embodiments is added after the primers are added and the rRNA is amplified, and in certain embodiments, the labeled probe and the primers are added at the same time. The portion of ribosomal nucleotide sequence amplified sometimes is at the 5′ end of rDNA.
Real-time quantitative PCR (QPCR) method may be used to detect the changes of the target c-myc and the endogenous reference GAPDH gene copies in the same tube. Generally, cells (15,000 cells/well) are seeded on 96 well flat bottom plates (Corning, N.Y.) and incubated under normal growth conditions for overnight. The next day, the culture medium is exchanged for that containing anticancer drugs at various concentrations and incubated for 4 hrs in a humidified atmosphere of 5% CO2 at 37° C. Total RNA (tRNA) is extracted using the RNeasy 96 Kit (QIAGEN, CA). The concentration of the tRNA is determined by the RiboGreen RNA Quantitation Reagent (Molecular Probes, OR).
A reverse-transcription (RT) reaction may be conducted using 50 ng of tRNA from each well in a 25 μl reaction containing 1× TaqMan RT buffer, 2.5 uM random hexamers, 5.5 mM MgCl2, 0.5 mM each deoxynucleoside triphosphate (dNTP), 30 U MultiScribe Reverse Transcriptase, and 10 U RNase inhibitor. RT reactions are incubated for 10 min at 25° C., reverse-transcribed for 30 min at 48° C., inactivated for 5 min at 95° C., and placed at 4° C. All RT reagents may be purchased from Applied Biosystems, CA.
Real-Time QPCR reaction may be performed in a 50 μl reaction containing the 5 μl of cDNA, 1× Universal PCR Master Mix, 1× c-myc Pre-Developed Primers and Probe set, and 0.8×GAPDH Pre-Developed Primers and Probe set. Because of the relative abundance of GAPDH gene in Hela, GAPDH primers and probe concentration may be adjusted to get accurate threshold cycles (CT) for both genes in the same tube. The threshold cycle (CT) indicates the fractional cycle number at which the amount of amplified target reaches a fixed threshold. By doing so, the GAPDH amplification is stopped before it can limit the common reactants available for amplification of the c-myc. The ΔRn value represents the normalized reporter signal minus the baseline signal. ΔRn increases during PCR as amplicon copy number increases until the reaction approaches a plateau.
The c-myc probe is labeled with 6FAM™ dye-MGB and the GAPDH probe is labeled with VIC™ dye-MTB. Preincubation is performed for 2 min at 50° C. to activate AmpErase UNG enzyme and then for 10 min at 95° C. to activate AmpliTaq DNA Polymerase. DNA is amplified for 40 cycles of 15 sec at 95° C. and 1 min at 60° C. Human c-myc and GAPDH cDNA are amplified, detected, and quantitated in real time using the ABI Prism 7000 Sequence Detection system (Applied Biosystems, CA), which is set to detect both 6-FAM and VIC reporter dyes simultaneously.
The data may be analyzed using the ABI PRISM Sequence Detection System and Microsoft Excel. Relative quantitation is done using the standard curve and comparative CT method at the same time, and both methods gave equivalent results. The cycle at which the amplification plot crosses the CT is known to accurately reflect relative mRNA values. (See, Heid, et al., Genome Res. (1996) 6:986-994; Gibson, et al., Genome Res. (1996) 6:995-1001). […]

[2] = Pharmacokinetic evaluation IV bolus and oral (bioavailability) in ICR mice; assay type: in vivo; conditions: mouse, plasma, IV 5 mg/kg and PO 25 mg/kg, read-out: Bioavailability (% F)
Description: The pharmacokinetics properties of drugs are investigated in ICR mice following an intravenous (IV) bolus and oral (PO) doses of drug at 5 mg/kg and 25 mg/kg respectively. Blood samples are collected at predetermined times and the plasma separated. Plasma is separated from the blood samples collected at 5, 15 and 30 minutes and 1, 2, 4, 8 and 24 hours post-dose.
Drug levels are quantified by the LC/MS/MS method described below. Noncompartmental pharmacokinetic analysis is applied for intravenous administration. A linear trapezoidal rule is used to compute AUC(0-24) or AUC(0-8). The terminal t1/2 and C0 are calculated using the last three and the first three data points, respectively
Bioanalysis is performed using a Quattro Micro LC/MS/MS instrument in the MRM detection mode, with an internal standard (IS). Briefly, 15 μL plasma samples are prepared for analysis using protein precipitation with 120 μL of acetonitrile. The supernatants are transferred into a 96 well plate and subjected to LC-MS/MS analysis using a PHENOMENEX® Polar-RP HPLC column. The mobile phases are 10 mM NH4HCO3 in water (Solution-A) and 10 mM NH4HCO3 in methanol (Solution-B). The column is initially equilibrated with 25% Solution-B and followed with 100% Solution B over 5 minutes. The method has a dynamic range from 1 to 10,000 ng/mL. Quantitation of the analytes is performed in the batch mode with two bracketing calibration curves according to the bioanalytical sample list.

Row | Compound | Selectivity [1] | IC50 [1] [nM] | bioavailability [2] [%]
1 | Cn1c2ccccc2n2c3nc(N4CCOCC4)c(F)cc3c(=O)c(C(=O)NCCN3CCCC3)c12 | 7 | 318 | 
2 | CN1CCCC1CCNC(=O)c1c(=O)c2cc(F)c(N3CCOCC3)nc2n2c3ccccc3n(C)c12 (stereo not drawn) | 8 | 521 | 10.4
3 | O=C(NCCN1CCCC1)c1c(=O)c2ccc(N3CCOCC3)nc2n2c1sc1ccccc12 | 162 | 52 | 10.7
4 | CN1CCCC1CCNC(=O)c1c(=O)c2ccc(N3CCOCC3)nc2n2c1sc1ccccc12 (stereo not drawn) | 42 | 249 | 
5 | Cn1c2ccccc2n2c3nc(N4CCOCC4)ccc3c(=O)c(C(=O)NCCN3CCCC3)c12 | 3 | 261 | 
6 | CN1CCCC1CCNC(=O)c1cn2c3c(c(N4CCOCC4)c(F)cc3c1=O)Oc1ccccc1-2 (stereo not drawn) | 12 | 405 | 
7 | CN1CCCC1CCNC(=O)c1c(=O)c2cc(F)c(N3CCOCC3)nc2n2c1sc1ccccc12 (stereo not drawn) | 10 | 892 | 22.4
8 | O=C(NCCN1CCCC1)c1c(=O)c2cc(F)c(N3CCOCC3)nc2n2c1sc1ccccc12 | 70 | 127 | 
9 | CN1CCN(C(=O)c2c(=O)c3cc(F)c(N4CCOCC4)nc3n3c2sc2ccccc23)CC1 | 7 | 1150 | 30.3
10 | O=C(NCCN1CCC(O)C1)c1c(=O)c2cc(F)c(N3CCOCC3)nc2n2c1sc1ccccc12 (stereo not drawn) | 10 | 10 | 
11 | CN1CCC(N(C)C(=O)c2c(=O)c3cc(F)c(N4CCOCC4)nc3n3c2sc2ccccc23)C1 (stereo not drawn) | 5 | 381 | 
12 | O=C(NCCNCC1CCCO1)c1c(=O)c2ccc(N3CCOCC3)nc2n2c1sc1ccccc12 (stereo not drawn) | 119 | 40 | 2
13 | O=C(NCCN1CC=CC1)c1c(=O)c2ccc(N3CCOCC3)nc2n2c1sc1ccccc12 | 22 | 64 | 27.5
14 | Cn1cncc1CNC(=O)c1c(=O)c2ccc(N3CCOCC3)nc2n2c1sc1ccccc12 | 60 | 262 | 12.4
15 | O=C(c1c(=O)c2ccc(N3CCOCC3)nc2n2c1sc1ccccc12)N1CCN(c2ncccn2)CC1 | 13 | 578 | 31.1
16 | O=C(c1c(=O)c2ccc(N3CCOCC3)nc2n2c1sc1ccccc12)N1CCN(c2ccccn2)CC1 | 17 | 723 | 
17 | O=C(NCCN1CC=CC1)c1cn2c3c(c(N4CCC(c5cnccn5)C4)c(F)cc3c1=O)Oc1cc3ccccc3cc1-2 (stereo not drawn) | 24 | 1040 | 
18 | O=C(NCCN1CC=CCC1)c1c(=O)c2ccc(N3CCOCC3)nc2n2c1sc1ccccc12 | 64 | 32 | 
19 | O=C(NCCN1CC=CC1)c1c(=O)c2cc(F)c(N3CCOCC3)nc2n2c1sc1ccccc12 | 3 | 42 | 
20 | O=C(NCCNCCF)c1c(=O)c2ccc(N3CCOCC3)nc2n2c1sc1ccccc12 | 48 | 59 | 
21 | O=C(NCCNCC(F)(F)F)c1c(=O)c2ccc(N3CCOCC3)nc2n2c1sc1ccccc12 | 15 | 502 | 
22 | O=C(NCCNCCF)c1c(=O)c2cc(F)c(N3CCOCC3)nc2n2c1sc1ccccc12 | 70 | 147 | 

Row | Compound | Selectivity [1] | IC50 [1] [nM] | bioavailability [2] [%]
23 | O=C(NCCn1ccnc1)c1c(=O)c2ccc(N3CCOCC3)nc2n2c1sc1ccccc12 | 24 | 431 | 
24 | Cn1ccnc1CNC(=O)c1c(=O)c2ccc(N3CCOCC3)nc2n2c1sc1ccccc12 | 9 | 173 | 17.9
25 | O=C(NCCN1CCOCC1)c1c(=O)c2ccc(N3CCOCC3)nc2n2c1sc1ccccc12 | 16 | 496 | 
26 | Cn1ccnc1CNC(=O)c1c(=O)c2cc(F)c(N3CCOCC3)nc2n2c1sc1ccccc12 | 11 | 134 | 15.8
27 | Cc1nccn1CCNC(=O)c1c(=O)c2ccc(N3CCOCC3)nc2n2c1sc1ccccc12 | 21 | 84 | 
28 | O=C(NNC1=NCCN1)c1c(=O)c2cc(F)c(N3CCOCC3)nc2n2c1sc1ccccc12 | 893 | 28 | 0.1
29 | Cn1c2ccccc2n2c3nc(N4CCOCC4)c(F)cc3c(=O)c(C(=O)N3CCN4CCCC4C3)c12 (stereo not drawn) | 10 | 841 | 
30 | CN1CCN(c2ccc3c(=O)c(C(=O)NCc4ccccn4)c4sc5ccccc5n4c3n2)CC1 | 111 | 112 | 41.4
31 | O=C(NCCNC1CC1)c1c(=O)c2cc(F)c(N3CCOCC3)nc2n2c1sc1ccccc12 | 53 | 248 | 
32 | CN1CCCCC1CNC(=O)c1c(=O)c2ccc(N3CCOCC3)nc2n2c1sc1ccccc12 (stereo not drawn) | 2778 | 9 | 
33 | CN1CCCN(C(=O)c2c(=O)c3cc(F)c(N4CCOCC4)nc3n3c2sc2ccccc23)CC1 | 10 | 233 | 
34 | Cn1ccnc1CNC(=O)c1c(=O)c2cc(N3CCOCC3)nnc2n2c1sc1ccccc12 | 53 | 334 | 
35 | CN1CCCC(NC(=O)c2c(=O)c3cc(F)c(N4CCOCC4)nc3n3c2sc2ccccc23)C1 (stereo not drawn) | 862 | 29 | 
36 | O=C(NCC1CCCN1)c1c(=O)c2cc(F)c(N3CCOCC3)nc2n2c1sc1ccccc12 (stereo not drawn) | 25 | 16 | 
37 | CN1CCCCC1CNc1ccc2c(=O)c(C(=O)NCc3ccncc3)c3sc4ccccc4n3c2n1 (stereo not drawn) | 39 | 67 | 
38 | CN1CCCC1CNC(=O)c1c(=O)c2cc(F)c(N3CCOCC3)nc2n2c1sc1ccccc12 (stereo not drawn) | 45 | 383 | 
39 | CN1CCN(c2nc3c(cc2F)c(=O)c(C(=O)NCc2cn(C)cn2)c2sc4ccccc4n23)CC1 | 69 | 139 | 
40 | O=C(NCCNC1CCC1)c1c(=O)c2ccc(N3CCOCC3)nc2n2c1sc1ccccc12 | 16 | 176 | 
41 | CN1CCN(c2ccc3c(=O)c(C(=O)NC4CC4)c4n(C)c5ccccc5n4c3n2)CC1 | 4 | 127 | 
42 | O=C(NCCNC1CC1)c1c(=O)c2ccc(N3CCOCC3)nc2n2c1sc1ccccc12 [drawing 604] | 39 | 100 | 43.3
43 | Cc1cnc(CNC(=O)c2c(=O)c3ccc(N4CCN(C)CC4)nc3n3c2sc2ccccc23)cn1 [drawing 619] | 13 | 69 | 
